Laboratory results: patent US11702422B2, “Imidazopyridazines as modulators of IL-17” (Janssen Pharmaceutica NV, priority 2020, dated 2023)
pIC50: −log10 of the molar value.

Experiments:
[1] = test system: IL-17A-induced G-CSF production in human normal keratinocyte (NHK); assay: NHK Assay: IL-17A-induced G-CSF production in human normal keratinocytes; assay type: cell-based; conditions: Homo sapiens, Keratinocyte, 24 h, adult normal human keratinocytes, IL-17A 5 ng/mL, simple average if tested more than once
How it was run: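 Compound is first combined with recombinant human IL-17A for 1 h at rt, and the mix is added to adult normal human keratinocytes so that IL-17A is 5 ng/mL. After 24 h at 37° C in 5% FBS, G-CSF released into the medium is read by HTRF and IC50 derived.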

[2] = target: IL-17A(FLAG-Tagged): IL-17RA(His-Tagged) (Homo sapiens, UniProt Q16552, K93Q); assay: IL-17A(FLAG-Tagged): IL-17RA(His-Tagged) Binding Disruption Eu-HTRF Assay; conditions: IL-17A/IL-17RA binding disruption, simple average if tested more than once
How it was run: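 IC50 comes from a one-site competition fit of the HTRF 665/620 nm ratio. Compound dilutions (2-fold, 22 points) were held 1 h rt with FLAG-tagged IL-17A dimer, then His-tagged IL-17RA plus Eu-cryptate anti-FLAG and D2 anti-His antibodies were added for 2 h rt.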

Chain of UniProt Q16552 (Q16552 with tags, fused parts or gaps K93Q): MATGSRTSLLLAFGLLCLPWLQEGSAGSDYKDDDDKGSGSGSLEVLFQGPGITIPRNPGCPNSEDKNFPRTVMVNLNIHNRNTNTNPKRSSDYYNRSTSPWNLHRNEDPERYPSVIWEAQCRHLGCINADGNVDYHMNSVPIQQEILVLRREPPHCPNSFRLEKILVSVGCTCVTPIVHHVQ

pIC50 [2] | SMILES | pIC50 [1]
6.02 | Cc1nonc1C(=O)N[C@H](c1cn2ncc([C@H](NC(=O)CO[C@H](C)C(F)(F)F)C3CC3)cc2n1)C1CCC(F)(F)CC1 [Example 357, N—((S)-(7-((R)-Cyclopropyl(2-(((R)-1,1,1-trifluoropropan-2-yl)oxy)acetamido)methyl)imidazo[1,2-b]pyridazin-2-yl)(4,4-difluorocyclohexyl)methyl)-4-methyl-1,2,5-oxadiazole-3-carboxamide] | 5.60
6.85 | Nc1nonc1C(=O)N[C@H](c1cn2ncc([C@H](NC(=O)CCC(F)(F)F)C3CC3)cc2n1)C1CCC(F)(F)CC1 [Example 370, 4-Amino-N—((S)-(7-((R)-cyclopropyl(4,4,4-trifluorobutanamido)methyl)imidazo[1,2-b]pyridazin-2-yl)(4,4-difluorocyclohexyl)methyl)-1,2,5-oxadiazole-3-carboxamide] | 6.33
6.85 | CC(C)(O)c1nonc1C(=O)N[C@H](c1cn2ncc([C@H](NC(=O)CCC(F)(F)F)C3CC3)cc2n1)C1CCC(F)(F)CC1 [Example 371, N—((S)-(7-((R)-Cyclopropyl(4,4,4-trifluorobutanamido)methyl)imidazo[1,2-b]pyridazin-2-yl)(4,4-difluorocyclohexyl)methyl)-4-(2-hydroxypropan-2-yl)-1,2,5-oxadiazole-3-carboxamide] | 6.35
6.92 | COc1conc1C(=O)N[C@H](c1cn2ncc([C@H](NC(=O)CCC(F)(F)F)C3CC3)cc2n1)C1CCC(F)(F)CC1 [Example 372, N—((S)-(7-((R)-Cyclopropyl(4,4,4-trifluorobutanamido)methyl)imidazo[1,2-b]pyridazin-2-yl)(4,4-difluorocyclohexyl)methyl)-4-methoxyisoxazole-3-carboxamide] | 6.13
7.21 | CCOc1conc1C(=O)N[C@H](c1cn2ncc([C@H](NC(=O)CCC(F)(F)F)C3CC3)cc2n1)C1CCC(F)(F)CC1 [Example 373, N—((S)-(7-((R)-Cyclopropyl(4,4,4-trifluorobutanamido)methyl)imidazo[1,2-b]pyridazin-2-yl)(4,4-difluorocyclohexyl)methyl)-4-ethoxyisoxazole-3-carboxamide] | 6.62
7.34 | CC(C)Oc1conc1C(=O)N[C@H](c1cn2ncc([C@H](NC(=O)CCC(F)(F)F)C3CC3)cc2n1)C1CCC(F)(F)CC1 [Example 374, N—((S)-(7-((R)-Cyclopropyl(4,4,4-trifluorobutanamido)methyl)imidazo[1,2-b]pyridazin-2-yl)(4,4-difluorocyclohexyl)methyl)-4-isopropoxyisoxazole-3-carboxamide] | 6.62
7.37 | O=C(CCC(F)(F)F)N[C@@H](c1cnn2cc([C@@H](NC(=O)c3nocc3OCC(F)F)C3CCC(F)(F)CC3)nc2c1)C1CC1 [Example 375, N—((S)-(7-((R)-Cyclopropyl(4,4,4-trifluorobutanamido)methyl)imidazo[1,2-b]pyridazin-2-yl)(4,4-difluorocyclohexyl)methyl)-4-(2,2-difluoroethoxy)isoxazole-3-carboxamide] | 6.77
7.10 | O=C(CCC(F)(F)F)N[C@@H](c1cnn2cc([C@@H](NC(=O)c3nocc3OCCF)C3CCC(F)(F)CC3)nc2c1)C1CC1 [Example 376, N—((S)-(7-((R)-Cyclopropyl(4,4,4-trifluorobutanamido)methyl)imidazo[1,2-b]pyridazin-2-yl)(4,4-difluorocyclohexyl)methyl)-4-(2-fluoroethoxy)isoxazole-3-carboxamide] | 6.55
7.22 | O=C(CCC(F)(F)F)N[C@@H](c1cnn2cc([C@@H](NC(=O)c3nocc3CC(F)(F)F)C3CCC(F)(F)CC3)nc2c1)C1CC1 [Example 377, N—((S)-(7-((R)-Cyclopropyl(4,4,4-trifluorobutanamido)methyl)imidazo[1,2-b]pyridazin-2-yl)(4,4-difluorocyclohexyl)methyl)-4-(2,2,2-trifluoroethyl)isoxazole-3-carboxamide] | 7.07
7.26 | CC(C)c1conc1C(=O)N[C@H](c1cn2ncc([C@H](NC(=O)CCC(F)(F)F)C3CC3)cc2n1)C1CCC(F)(F)CC1 [Example 378, N—((S)-(7-((R)-Cyclopropyl(4,4,4-trifluorobutanamido)methyl)imidazo[1,2-b]pyridazin-2-yl)(4,4-difluorocyclohexyl)methyl)-4-isopropylisoxazole-3-carboxamide] | 7.02
7.77 | CC(C)c1nonc1C(=O)N[C@H](c1cn2ncc([C@H](NC(=O)CCC(F)(F)F)C3CC3)cc2n1)C1CCC(F)(F)CC1 [Example 379, N—((S)-(7-((R)-Cyclopropyl(4,4,4-trifluorobutanamido)methyl)imidazo[1,2-b]pyridazin-2-yl)(4,4-difluorocyclohexyl)methyl)-4-isopropyl-1,2,5-oxadiazole-3-carboxamide] | 7.52
7.32 | O=C(CCC(F)(F)F)N[C@@H](c1cnn2cc([C@@H](NC(=O)c3nonc3OC3CC3)C3CCC(F)(F)CC3)nc2c1)C1CC1 [Example 380, 4-Cyclopropoxy-N—((S)-(7-((R)-cyclopropyl(4,4,4-trifluorobutanamido)methyl)imidazo[1,2-b]pyridazin-2-yl)(4,4-difluorocyclohexyl)methyl)-1,2,5-oxadiazole-3-carboxamide] | 7.52
7.57 | O=C(CCC(F)(F)F)N[C@@H](c1cnn2cc([C@@H](NC(=O)c3nonc3C3CC3)C3CCC(F)(F)CC3)nc2c1)C1CC1 [Example 381, 4-Cyclopropyl-N—((S)-(7-((R)-cyclopropyl(4,4,4-trifluorobutanamido)methyl)imidazo[1,2-b]pyridazin-2-yl)(4,4-difluorocyclohexyl)methyl)-1,2,5-oxadiazole-3-carboxamide] | 7.51
7.29 | O=C(CCC(F)(F)F)N[C@@H](c1cnn2cc([C@@H](NC(=O)c3nonc3OCC(F)(F)F)C3CCC(F)(F)CC3)nc2c1)C1CC1 [Example 382, N—((S)-(7-((R)-Cyclopropyl(4,4,4-trifluorobutanamido)methyl)imidazo[1,2-b]pyridazin-2-yl)(4,4-difluorocyclohexyl)methyl)-4-(2,2,2-trifluoroethoxy)-1,2,5-oxadiazole-3-carboxamide] | 7.96
7.29 | O=C(CCC(F)(F)F)N[C@@H](c1cnn2cc([C@@H](NC(=O)c3nonc3OCC(F)F)C3CCC(F)(F)CC3)nc2c1)C1CC1 [Example 383, N—((S)-(7-((R)-Cyclopropyl(4,4,4-trifluorobutanamido)methyl)imidazo[1,2-b]pyridazin-2-yl)(4,4-difluorocyclohexyl)methyl)-4-(2,2-difluoroethoxy)-1,2,5-oxadiazole-3-carboxamide] | 7.72
7.18 | O=C(CCC(F)(F)F)N[C@@H](c1cnn2cc([C@@H](NC(=O)c3nonc3OCCF)C3CCC(F)(F)CC3)nc2c1)C1CC1 [Example 384, N—((S)-(7-((R)-Cyclopropyl(4,4,4-trifluorobutanamido)methyl)imidazo[1,2-b]pyridazin-2-yl)(4,4-difluorocyclohexyl)methyl)-4-(2-fluoroethoxy)-1,2,5-oxadiazole-3-carboxamide] | 7.51
7.46 | O=C(CC1CC(F)(F)C1)N[C@@H](c1cnn2cc([C@@H](NC(=O)c3nonc3COC(F)F)C3CCC(F)(F)CC3)nc2c1)C1CC1 [Example 385, N—((S)-(7-((R)-Cyclopropyl(2-(3,3-difluorocyclobutyl)acetamido)methyl)imidazo[1,2-b]pyridazin-2-yl)(4,4-difluorocyclohexyl)methyl)-4-((difluoromethoxy)methyl)-1,2,5-oxadiazole-3-carboxamide] | 7.49
7.16 | O=C(CC1CC(F)(F)C1)N[C@@H](c1cnn2cc([C@@H](NC(=O)c3nonc3N3CCC3)C3CCC(F)(F)CC3)nc2c1)C1CC1 [Example 386, 4-(Azetidin-1-yl)-N—((S)-(7-((R)-cyclopropyl(2-(3,3-difluorocyclobutyl)acetamido)methyl)imidazo[1,2-b]pyridazin-2-yl)(4,4-difluorocyclohexyl)methyl)-1,2,5-oxadiazole-3-carboxamide] | 6.64
7.07 | CC(C)(F)c1nonc1C(=O)N[C@H](c1cn2ncc([C@H](NC(=O)CCC(F)(F)F)C3CC3)cc2n1)C1CCC(F)(F)CC1 [Example 388, N—((S)-(7-((R)-Cyclopropyl(4,4,4-trifluorobutanamido)methyl)imidazo[1,2-b]pyridazin-2-yl)(4,4-difluorocyclohexyl)methyl)-4-(2-fluoropropan-2-yl)-1,2,5-oxadiazole-3-carboxamide] | 7.00
7.25 | O=C(CC1CC(F)(F)C1)N[C@@H](c1cnn2cc([C@@H](NC(=O)c3nonc3OCC(F)F)C3CCC(F)(F)CC3)nc2c1)C1CC1 [Example 389, N—((S)-(7-((R)-Cyclopropyl(2-(3,3-difluorocyclobutyl)acetamido)methyl)imidazo[1,2-b]pyridazin-2-yl)(4,4-difluorocyclohexyl)methyl)-4-(2,2-difluoroethoxy)-1,2,5-oxadiazole-3-carboxamide] | 7.54
7.07 | O=C(CCC(F)F)N[C@@H](c1cnn2cc([C@@H](NC(=O)c3nonc3OCC(F)F)C3CCC(F)(F)CC3)nc2c1)C1CC1 [Example 390, N—((S)-(7-((R)-Cyclopropyl(4,4-difluorobutanamido)methyl)imidazo[1,2-b]pyridazin-2-yl)(4,4-difluorocyclohexyl)methyl)-4-(2,2-difluoroethoxy)-1,2,5-oxadiazole-3-carboxamide] | 6.89
